Data reported in BigSolDB 2.1.

OC[C@H]1O[C@@H](Oc2c(O)cc(O)cc2/C=C/c2ccc(O)cc2)[C@H](O)[C@@H](O)[C@@H]1O
solubility (mole fraction)
Settings | in DMF | in THF | in acetone | in acetonitrile | in ethanol | in ethyl acetate | in isopropanol | in methanol | in n-propanol
278.15 K | 0.0145 | 0.0128 | 0.0121 | 0.00281 | 0.00757 | 0.00441 | 0.00535 | 0.00794 | 0.00601
283.15 K | 0.0175 | 0.0157 | 0.0149 | 0.00349 | 0.00881 | 0.00543 | 0.00652 | 0.00978 | 0.0078
288.15 K | 0.0214 | 0.0191 | 0.0181 | 0.0043 | 0.0108 | 0.00665 | 0.00838 | 0.0121 | 0.00977
293.15 K | 0.0255 | 0.0231 | 0.0219 | 0.00526 | 0.0136 | 0.00828 | 0.01 | 0.0149 | 0.012
298.15 K | 0.0311 | 0.0277 | 0.0264 | 0.00639 | 0.0159 | 0.00987 | 0.0122 | 0.0181 | 0.014
303.15 K | 0.0369 | 0.0331 | 0.0315 | 0.00772 | 0.0199 | 0.0118 | 0.0146 | 0.0215 | 0.0166
308.15 K | 0.0442 | 0.0393 | 0.0365 | 0.00927 | 0.0232 | 0.0139 | 0.0174 | 0.0261 | 0.0196
313.15 K | 0.0522 | 0.0464 | 0.0443 | 0.0111 | 0.0281 | 0.0165 | 0.0205 | 0.0316 | 0.0228
318.15 K | 0.0614 | 0.0545 | 0.052 | 0.0131 | 0.0326 | 0.0192 | 0.0238 | 0.0377 | 0.0269
